The values below are quoted from earlier work in US20090131263A1, “Normalization methods for G-protein coupled receptor membrane array” (priority 2007, published 2009).

In one series the target is Go (Homo sapiens, UniProt P09471). Particulars: unactivated form of G protein Go, reconstituted vesicle systems.
A further series deals with Gs (Homo sapiens, UniProt P63092). Particulars: unactivated form of G protein Gs, reconstituted vesicle systems.
The target in the next series is Gi1 (Homo sapiens, UniProt P63096). Particulars: unactivated form of G protein Gi1, reconstituted vesicle systems.
Gi1, sequence (P63096 whole entry): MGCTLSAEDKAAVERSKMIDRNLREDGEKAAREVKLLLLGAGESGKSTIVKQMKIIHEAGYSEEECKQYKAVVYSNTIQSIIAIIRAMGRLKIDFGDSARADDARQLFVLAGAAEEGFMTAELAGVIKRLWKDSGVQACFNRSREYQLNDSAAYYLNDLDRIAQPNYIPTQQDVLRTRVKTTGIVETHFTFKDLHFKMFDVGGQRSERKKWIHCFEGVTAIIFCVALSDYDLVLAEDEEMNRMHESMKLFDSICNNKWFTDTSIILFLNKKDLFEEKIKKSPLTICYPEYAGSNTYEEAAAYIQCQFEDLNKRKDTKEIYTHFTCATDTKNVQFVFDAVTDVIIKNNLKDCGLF
The target of a further series is Gi2 (Homo sapiens, UniProt P04899). Particulars: unactivated form of G protein Gi2, reconstituted vesicle systems.
Gi2, sequence (P04899 whole entry): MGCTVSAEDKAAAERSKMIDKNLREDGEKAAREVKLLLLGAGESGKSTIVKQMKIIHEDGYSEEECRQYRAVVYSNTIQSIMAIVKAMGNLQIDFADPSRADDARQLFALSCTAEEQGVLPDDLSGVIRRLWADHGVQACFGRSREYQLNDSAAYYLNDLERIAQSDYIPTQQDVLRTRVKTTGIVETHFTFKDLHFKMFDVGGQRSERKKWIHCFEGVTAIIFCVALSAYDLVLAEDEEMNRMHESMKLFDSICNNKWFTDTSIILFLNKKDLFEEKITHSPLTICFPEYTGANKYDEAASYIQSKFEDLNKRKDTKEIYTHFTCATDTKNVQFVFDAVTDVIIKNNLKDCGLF

Go, sequence (P09471 whole entry): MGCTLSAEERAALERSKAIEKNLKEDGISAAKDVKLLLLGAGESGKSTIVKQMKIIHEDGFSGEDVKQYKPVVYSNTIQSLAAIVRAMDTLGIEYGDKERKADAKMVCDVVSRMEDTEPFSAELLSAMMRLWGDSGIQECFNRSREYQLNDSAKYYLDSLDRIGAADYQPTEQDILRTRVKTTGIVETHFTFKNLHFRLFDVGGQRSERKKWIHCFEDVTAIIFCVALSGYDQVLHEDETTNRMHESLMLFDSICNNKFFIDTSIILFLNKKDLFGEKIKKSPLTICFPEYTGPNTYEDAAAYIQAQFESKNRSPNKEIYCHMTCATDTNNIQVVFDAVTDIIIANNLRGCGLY
Gs, sequence (P63092 whole entry): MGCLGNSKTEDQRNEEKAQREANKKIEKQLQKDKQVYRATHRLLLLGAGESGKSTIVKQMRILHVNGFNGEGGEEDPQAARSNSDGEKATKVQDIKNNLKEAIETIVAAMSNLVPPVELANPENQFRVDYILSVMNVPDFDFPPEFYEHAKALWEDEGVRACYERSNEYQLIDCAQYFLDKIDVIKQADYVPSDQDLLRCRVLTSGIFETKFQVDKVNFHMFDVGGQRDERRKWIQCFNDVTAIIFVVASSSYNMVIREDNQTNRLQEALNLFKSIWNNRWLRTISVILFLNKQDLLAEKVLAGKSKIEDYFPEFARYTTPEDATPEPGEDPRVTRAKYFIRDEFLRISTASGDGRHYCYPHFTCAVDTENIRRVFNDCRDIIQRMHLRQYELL

For orientation: Kd means the constant that tells how readily two partners part at equilibrium. As to BODIPY-FL-GTPγS, the dissociation constant (Kd) at Go is 6 nM; on Gs, 70 nM; on Gi1 it was 150 nM; at Gi2, 300 nM.
